Values of other authors as cited in patent publication US20130344141A1, “CONCENTRATION AND MENTAL PERFORMANCE AMPLIFYING FORMULATION” (priority 2009, published 2013).
Read-outs that look alike come from different tables or passages of the source.

Legend:
[1] = majority metabolized peripherally
neurons = conditions: by blocking glutamate-induced neuronal calcium influx and cell death
[2] = test system: cerebral cortex N-methyl-D-aspartate (NMDA) receptor
[3] = in vivo
[4] = test system: fungal microorganisms that cause onychomycosis; conditions: Trichophyton rubrum, T. mentagrophytes, Microsporum canis, Epidermophyton floccosum, E. stockdale
[5] = in vivo; remark: listed apart in the source
[6] = in vivo, po
[7] = taken orally
neuroblastoma cells = conditions: in vitro

Molecule: N[C@@H](Cc1ccc(O)c(O)c1)C(=O)O [L-dopa, levodopa]
- share that reaches the brain [1]: less than 1%

Molecule: C/C=C1\[C@H]2C=C(C)C[C@]1(N)c1ccc(=O)[nH]c1C2 [huperzine A, Huperzine A]
- protection of neurons against toxic levels of glutamate (neurons): protects neurons
- affinity as NMDA receptor antagonist [2]: low affinity
- blood-brain barrier passage [3]: crosses the blood-brain barrier
- acetylcholine elevation, frontal cortex (acetylcholine; maximal value, frontal cortex): 125%
- acetylcholine elevation, parietal cortex (acetylcholine; maximal value, parietal cortex): 105%
- acetylcholine elevation, other brain regions (acetylcholine; other brain regions): 22-65%

Molecule: CC1CCC(C(C)C)C(O)C1 (stereo not shown) [menthol]
- activity against fungal microorganisms that cause onychomycosis [4]: active

Molecule: CCOC(=O)C1=C[C@]2(CC)CCCN3CCc4c(n1c1ccccc41)[C@@H]32 [vinpocetine, Eburnamenine-14-carboxylic acid; Ethyl Ester]
- bioavailability [5]: 7-57%
- effect of food on absorption [5]: food significantly enhances absorption
- drug-induced platelet aggregation (platelet aggregation): inhibits

Molecule: CN1CCCC1c1cccnc1 (stereo not shown) [nicotine, Nicotine]
- elimination half-life (in the body): around two
- blood-brain barrier passage (in vivo): crosses the blood-brain barrier

Molecule: Cn1c(=O)c2c(ncn2C)n(C)c1=O [caffeine, 1,3,7-trimethylxanthine]
- bioavailability [6]: 100%

Molecule: 1,2-diacyl-:ussn:ueglycero-3-phosphocholine [phosphatidylcholine]
- time to maximum serum concentrations [7]: 8 to 12 h

Molecule: OC[C@H]1O[C@@H](OCCc2ccc(O)cc2)[C@H](O)[C@@H](O)[C@@H]1O [salidroside]
- apoptosis of neuroblastoma cells exposed to hydrogen peroxide (neuroblastoma cells): decreases apoptosis
